Read-outs that look alike come from different tables or passages of the source. Square brackets hold non-standard residues; d marks the D form. Peptide text beside a SMILES is read from it.
How the values were obtained:
[1] = metabolic stability in rat plasma; assay type: in vitro ADME; details: read-out: Rat plasma t1/2
Excerpt: The metabolic stability of the peptides depends on the modifications to the peptides. […] As expected, peptides without N-terminal modification were rapidly metabolized (Table 2), presumably by aminopeptidases. […] Homogenization is likely to rupture cell membranes, releasing intracellular proteases that could metabolize these peptides, so that this system may not accurately reflect the metabolism that occurs in vivo. Endopeptidases capable of metabolizing Dyn A are also present on red blood cells, and can rapidly metabolize some Dyn A-(1-11) amide analogs, e.g. arodyn.

[2] = BBMEC permeability (in-vitro model of the blood-brain barrier); details: for Papp: pH 7.4
[3] = rat, blood
[4] = rat, brain homogenate, half life (t1/2) in rat brain homogenate
kappa-opioid receptor = details: in vivo; cited from earlier work
[5] = target: T1, kappa-opioid receptor (KOR) (Mus musculus, UniProt P33534); details: animal models, after a single dose; cited from earlier work
T1 construct: from tissue; host or cells: living C57B1/6J mice (central and peripheral KOR)

KOR = KOR (Rattus norvegicus, UniProt P34975); assay: antagonist activity (adenylyl cyclase assay); assay type: cell-based
[6] = observation of side effects in mice; details: mouse, in vivo
Excerpt: The ability of zyklophin to cross the BBB allows for any type of systemic administration, such as subcutaneous administration. Accordingly, zyklophin can be administered in a manner other than, but including, intercerebroventricular administration. Moreover, the ability of zyklophin to cross the BBB allows for a myriad of formulation opportunities, where the formulation can be prepared for a suitable mode or route of administration. As a consequence of having high selectivity for KOR and BBB permeability, zyklophin is a favorable drug candidate and as a lead drug for derivatizations and analoging. […] The mice data is discussed in more detail herein and in the incorporated references.

[7] = target: kappa-opioid receptor (KOR) (Rattus norvegicus, UniProt P34975); assay: binding affinity (Ki) at KOR
in vitro = details: rat, brain homogenate, half life (t1/2) in rat brain homogenate

T1 sequence (P33534 whole entry): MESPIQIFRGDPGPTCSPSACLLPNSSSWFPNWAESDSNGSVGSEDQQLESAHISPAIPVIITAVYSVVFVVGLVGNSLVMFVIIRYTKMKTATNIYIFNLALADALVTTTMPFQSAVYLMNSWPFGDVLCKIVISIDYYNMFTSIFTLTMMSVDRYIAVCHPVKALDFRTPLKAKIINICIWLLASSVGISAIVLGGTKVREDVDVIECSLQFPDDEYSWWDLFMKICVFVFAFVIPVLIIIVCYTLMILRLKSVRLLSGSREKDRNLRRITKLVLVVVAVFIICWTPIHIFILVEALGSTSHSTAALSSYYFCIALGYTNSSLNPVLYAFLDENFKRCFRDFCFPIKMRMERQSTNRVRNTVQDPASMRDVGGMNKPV
KOR, sequence (P34975 whole entry): as the sequence (P33534 whole entry) above, with D11E, S17A, S51P, A308V counted along it
kappa-opioid receptor (KOR) (Rattus norvegicus, UniProt P34975), sequence (P34975 whole entry): as the sequence (P33534 whole entry) above, with D11E, S17A, S51P, A308V counted along it

Compound: CC[C@H](C)[C@H](NC(=O)[C@H](CCCNC(=N)N)NC(=O)[C@H](CCCNC(=N)N)NC(=O)[C@H](CC(C)C)NC(=O)[C@H](Cc1ccccc1)NC(=O)CNC(=O)CNC(=O)[C@H](Cc1ccc(O)cc1)NC(C)=O)C(=O)N[C@@H](CCCNC(=N)N)C(=O)N1CCC[C@H]1C(=O)N[C@@H](CCCCN)C(N)=O [Ac-Dyn A-(1-11)NH2]
- half-life [1]: 1.85 ± 0.283 h
- efflux ratio [2]: 2.4
- Papp [2]: 7.1 ± 2.3 ×10⁻⁶ cm/s

Compound: CC(=O)N[C@@H](Cc1ccccc1)C(=O)N[C@@H](Cc1ccccc1)C(=O)N[C@@H](Cc1ccccc1)C(=O)N[C@@H](CCCNC(=N)N)C(=O)N[C@@H](CC(C)C)C(=O)N[C@@H](CCCNC(=N)N)C(=O)N[C@@H](CCCNC(=N)N)C(=O)N[C@H](C)C(=O)N[C@@H](CCCNC(=N)N)C(=O)N1CCC[C@H]1C(=O)N[C@@H](CCCCN)C(N)=O [Arodyn, Ac[Phe^1,2,3,Arg^4,D-Ala^8]Dyn A-(1-11) amide] (Ac-FFFRLRR[dA]RPK-NH2)
- half-life [1]: 1.73 ± 0.0667 h
- efflux ratio [2]: 1.6
- Papp [2]: 7.6 ± 3 ×10⁻⁶ cm/s
- half-life [3]: < 2 min
- half-life [4]: 0.167 to 0.183 h

Compound: CC[C@H](C)[C@H](NC(=O)[C@H](CCCN=C(N)N)NC(=O)[C@H](CCCN=C(N)N)NC(=O)[C@H](CC(C)C)NC(=O)[C@H](Cc1ccccc1)NC(=O)CNC(=O)CNC(=O)[C@@H](N)Cc1ccc(O)cc1)C(=O)N[C@@H](CCCN=C(N)N)C(=O)N1CCC[C@H]1C(=O)N[C@@H](CCCCN)C(N)=O [Dyn A-(1-11)NH2, Dynorphin A-(1-11) amide]
- half-life [1]: < 0.0333 h
- efflux ratio [2]: 0.9
- Papp [2]: 3.8 ± 1.3 ×10⁻⁶ cm/s

Compound: CC(C)[C@@H](CN1CC[C@@](C)(c2cccc(O)c2)[C@@H](C)C1)NC(=O)[C@H]1Cc2ccc(O)cc2CN1 [JDTic, (3R)-7-hydroxy-N-{(1S)-1-{[(3R,4R)-4-(3-hydroxyphenyl)-3,4-dimethyl-1-piperidinyl]methyl}-2-methylpropyl}-1,2,3,4-tetrahydro-3-isoquinolinecarbox-amide]
- effect on stress-induced reinstatement of cocaine seeking (literature) (kappa-opioid receptor): suppress stress-induced reinstatement of cocaine self-administration
- duration of action of KOR antagonism (literature) [5]: prolonged duration of action

Compound: Oc1ccc2c3c1O[C@H]1c4[nH]c5c(c4C[C@@]4(O)[C@@H](C2)N(CC2CC2)CC[C@]314)C[C@@]1(O)[C@H]2Cc3ccc(O)c4c3[C@@]1(CCN2CC1CC1)[C@H]5O4 [nor-binaltorphimine]
- duration of action of KOR antagonism (literature) [5]: prolonged duration of action

Compound: N=C(N)NCCC[C@@H]1NC(=O)[C@H](CCCNC(=N)N)NC(=O)[C@H](NC(=O)[C@H](Cc2ccccc2)NC(=O)CNC(=O)CNC(=O)[C@H](Cc2ccc(O)cc2)NCc2ccccc2)CC(=O)NC[C@@H](C(=O)N[C@@H](CCCNC(=N)N)C(=O)N2CCC[C@H]2C(=O)N[C@@H](CCCCN)C(N)=O)NC1=O [zyklophin, [N-benzylTyr^1,cyclo(D-Asp^5,Dap^8)]Dyn A-(1-11) amide]
- Kb (KOR): 0.084 µM
- side effects in mice [6]: no unwanted side affects have been observed
- Ki [7]: 0.03 ± 0.002 µM
- half-life (in vitro): 1.17 h

Reference: patent publication US20090111741A1, “METHOD FOR TREATING AND/OR […] SEEKING BEHAVIOR” (priority 2007, published 2009)
